Legend:
Surinam grass = experiment: Test B pre-/postemergence herbicide test; assay type: in vivo, Urochloa decumbens; details: for Surinam Grass plant response rating: postemergence
Outline: (§1)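 Herbicidal effect was judged by eye on a 0–100 scale after plants stood 13 to 15 days in the greenhouse following pre- or postemergence treatment with surfactant-containing formulations.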

cocklebur = experiment: Test B pre-/postemergence herbicide test; assay type: in vivo, Xanthium strumarium; details: for Cocklebur plant response rating: postemergence
Outline: as §1

corn = experiment: Test B pre-/postemergence herbicide test; assay type: in vivo, Zea mays; details: for Corn plant response rating: postemergence
Outline: as §1

large crabgrass = experiment: Test B pre-/postemergence herbicide test; assay type: in vivo, Digitaria sanguinalis; details: for Crabgrass, Large plant response rating: postemergence
Outline: as §1

giant foxtail = experiment: Test B pre-/postemergence herbicide test; assay type: in vivo, Setaria faberi; details: for Foxtail, Giant plant response rating: postemergence
Outline: as §1

lambsquarters = experiment: Test B pre-/postemergence herbicide test; assay type: in vivo, Chenopodium album; details: for Lambsquarters plant response rating: postemergence
Outline: as §1

morningglory = experiment: Test B pre-/postemergence herbicide test; assay type: in vivo, Ipomoea coccinea; details: for Morningglory plant response rating: postemergence
Outline: as §1

pigweed = experiment: Test B pre-/postemergence herbicide test; assay type: in vivo, Amaranthus retroflexus; details: for Pigweed plant response rating: postemergence
Outline: as §1

velvetleaf = experiment: Test B pre-/postemergence herbicide test; assay type: in vivo, Abutilon theophrasti; details: for Velvetleaf plant response rating: postemergence
Outline: as §1

blackgrass = experiment: Test B postemergence herbicide test; assay type: in vivo, Alopecurus myosuroides; details: postemergence
Outline: (§2)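 Treated at 2-leaf (paddy) or 1–4-leaf, 2–18 cm (postemergence); greenhouse 13–15 d; visual score vs control, 0 none to 100 complete control; dash = not tested.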

wheat = experiment: Test B postemergence herbicide test; assay type: in vivo, Triticum aestivum; parameters: key to Wheat plant response rating: 0 = no effect, 100 = complete control; details: postemergence
Outline: (§3)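 Visual ratings, 0 (no effect) to 100 (complete control), made versus controls after 13–15 d greenhouse. Paddy plants treated at 2-leaf stage; postemergence plants at 1- to 4-leaf stage, 2–18 cm tall.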

wild oat = experiment: Test B postemergence herbicide test; assay type: in vivo, Avena fatua; details: postemergence
Outline: as §3

rice = experiment: Test B flooded paddy test; assay type: in vivo, Oryza sativa; details: 1000 g ai/ha, scale 0 to 100 (0 no effect, 100 complete control)
Outline: as §2

[1] = tested on: small flower umbrella sedge; experiment: Test B flooded paddy test; assay type: in vivo, Cyperus difformis; details: 1000 g ai/ha, scale 0 to 100 (0 no effect, 100 complete control)
Outline: as §2

barnyardgrass = experiment: Test B flooded paddy test; assay type: in vivo, Echinochloa crus-galli; details: 1000 g ai/ha, scale 0 to 100 (0 no effect, 100 complete control)
Outline: as §2

[2] = 125 g ai/ha, 0 = no effect, 100 = complete control, preemergence
[3] = 125 g ai/ha, visual rating, scale 0 (no effect) to 100 (complete control)
[4] = 500 g ai/ha, visual rating, 0 = no effect, 100 = complete control, preemergence
[5] = 500 g ai/ha, scale 0 to 100, 0 is no effect, 100 is complete control

CCn1nc(C(C)(C)C)cc1C(=O)Nc1cncc(C(=O)N(C)C)n1 [Compound 287]
10: Surinam Grass plant response rating (Surinam grass; [5]) | Cocklebur plant response rating (cocklebur; [3]) | Cocklebur plant response rating (cocklebur; [5]) | Foxtail, Giant plant response rating (0 to 100 scale) (giant foxtail; [2]) | Lambsquarters plant response rating (lambsquarters; [3]) | Plant response rating, Morningglory (morningglory; [4]) | Blackgrass plant response rating (blackgrass; [3]) | Wheat plant response rating (wheat; [3])
70: Corn plant response rating (corn; [5]) | Crabgrass, Large plant response rating (0 to 100 scale) (large crabgrass; [2]) | Rice plant response rating (rice)
100: Plant response rating, Crabgrass, Large (large crabgrass; [4]) | Lambsquarters plant response rating (0 to 100 scale) (lambsquarters; [2]) | Plant response rating, Lambsquarters (lambsquarters; [4]) | Plant response rating, Pigweed (pigweed; [4]) | Plant response rating, Velvetleaf (velvetleaf; [4])
60: Plant response rating, Cocklebur (cocklebur; [4]) | Velvetleaf plant response rating (velvetleaf; [5])
50: Surinam Grass plant response rating (0 to 100 scale) (Surinam grass; [2])
20: Foxtail, Giant plant response rating (giant foxtail; [3]) | Lambsquarters plant response rating (lambsquarters; [5]) | Morningglory plant response rating (morningglory; [5]) | Pigweed plant response rating (pigweed; [3]) | Oat, Wild plant response rating (wild oat; [3])
40: Oat, Wild plant response rating (wild oat; [5])
30: Plant response rating, Corn (corn; [4]) | Pigweed plant response rating (pigweed; [5]) | Blackgrass plant response rating (blackgrass; [5]) | Wheat plant response rating (wheat; [5])
90: Plant response rating, Foxtail, Giant (giant foxtail; [4]) | Pigweed plant response rating (0 to 100 scale) (pigweed; [2])
0: Surinam Grass plant response rating (Surinam grass; [3]) | Cocklebur plant response rating (0 to 100 scale) (cocklebur; [2]) | Corn plant response rating (0 to 100 scale) (corn; [2]) | Corn plant response rating (corn; [3]) | Crabgrass, Large plant response rating (large crabgrass; [3]) | Crabgrass, Large plant response rating (large crabgrass; [5]) | Morningglory plant response rating (0 to 100 scale) (morningglory; [2]) | Morningglory plant response rating (morningglory; [3]) | Velvetleaf plant response rating (velvetleaf; [3])
80: Plant response rating, Surinam Grass (Surinam grass; [4]) | Foxtail, Giant plant response rating (giant foxtail; [5]) | Sedge, Umbrella plant response rating [1] | Barnyardgrass plant response rating (barnyardgrass)

From patent US20060069132A1, “Azolecarboxamide herbicides” (priority 2004, published 2006)
